Active and inactive are the calls of the source. The calls are words filed in the database; no cut-off is given here.
What was measured:
IGROV-1 [1] = test: Cell cycle arrest in human IGROV1 cells assessed as accumulation at G2 phase at 0.5 uM after 24 hrs by propidium iodide staining based flow cytometry (reference value: 19%); type: functional
PC-3 [2] = test: Cell cycle arrest in human PC3 cells assessed as accumulation at G2 phase at 0.5 uM after 24 hrs by propidium iodide staining based flow cytometry (reference value: 13%); type: functional
BXPC-3 [3] = test: Cell cycle arrest in human BxPC3 cells assessed as accumulation at G1 phase at 50 uM after 24 hrs by propidium iodide staining based flow cytometry (reference value: 41%); type: functional
DU-145 [4] = test: Cytotoxicity against human DU145 cells after 48 hrs by trypan blue assay; type: functional, cell-based
BXPC-3 [5] = test: Growth inhibition of human BxPC3 cells after 48 hrs by SRB assay; type: functional; conditions: BXPC-3, 48 h
HCT-15 = test: Growth inhibition of human HCT15 cells after 48 hrs by SRB assay; type: functional; conditions: HCT-15, 48 h
PC-3 [6] = test: Induction of apoptosis in human PC3 cells assessed as early apoptotic cells at 0.5 uM after 24 hrs by Annexin V/7-AAD staining based flow cytometry (reference value: 5%); type: functional
DMS-114 = test: Growth inhibition of human DMS114 cells after 48 hrs by SRB assay; type: functional; conditions: DMS-114, 48 h
MIA PaCa-2 = test: Antitumor activity against human MIAPaCa2 cells xenografted in SCID mouse assessed as reduction in tumor volume at 45 mg/kg, ip for 3 consecutive days; type: functional; conditions: MIA PaCa-2, ip, route intraperitoneal
IGROV-1 [7] = test: Induction of apoptosis in human IGROV1 cells assessed as total apoptotic death cells at 15 uM after 24 hrs by Annexin V/7-AAD staining based flow cytometry (reference value: 13%); type: functional
IGROV-1 [8] = test: Cell cycle arrest in human IGROV1 cells assessed as accumulation at >G2 phase at 15 uM after 24 hrs by propidium iodide staining based flow cytometry (reference value: 21%); type: functional
BXPC-3 [9] = test: Cell cycle arrest in human BxPC3 cells assessed as accumulation at G2 phase at 0.5 uM after 24 hrs by propidium iodide staining based flow cytometry (reference value: 12%); type: functional
PC-3 [10] = test: Induction of apoptosis in human PC3 cells assessed as late apoptotic cells at 5 uM after 24 hrs by Annexin V/7-AAD staining based flow cytometry (reference value: 2%); type: functional
IGROV-1 [11] = test: Induction of apoptosis in human IGROV1 cells assessed as late apoptotic cells at 0.5 uM after 24 hrs by Annexin V/7-AAD staining based flow cytometry (reference value: 4%); type: functional
BXPC-3 [12] = test: Cell cycle arrest in human BxPC3 cells assessed as accumulation at S phase at 50 uM after 24 hrs by propidium iodide staining based flow cytometry (reference value: 33%); type: functional
BXPC-3 [13] = test: Cell cycle arrest in human BxPC3 cells assessed as accumulation at >G2 phase at 50 uM after 24 hrs by propidium iodide staining based flow cytometry (reference value: 6%); type: functional
PC-3 [14] = test: Cell cycle arrest in human PC3 cells assessed as accumulation at G1 phase at 50 uM after 24 hrs by propidium iodide staining based flow cytometry (reference value: 36%); type: functional
PC-3 [15] = test: Induction of apoptosis in human PC3 cells assessed as total apoptotic death cells at 5 uM after 24 hrs by Annexin V/7-AAD staining based flow cytometry (reference value: 7%); type: functional
SF-295 = test: Cytotoxicity against human SF295 cells after 48 hrs by trypan blue assay; type: functional, cell-based
BXPC-3 [16] = test: Antitumor activity against human BxPC3 cells xenografted in SCID mouse assessed as tumor weight at 40 mg/kg, ip for 5 consecutive days and 2 administrations for one more week (reference value: 723 +/- 45 mg); type: functional; conditions: route intraperitoneal
PC-3 [17] = test: Cell cycle arrest in human PC3 cells assessed as accumulation at G1 phase at 15 uM after 24 hrs by propidium iodide staining based flow cytometry (reference value: 36%); type: functional
BXPC-3 [18] = test: Induction of apoptosis in human BxPC3 cells assessed as cleaved caspase-3 containing cells at 5 uM after 24 hrs by FACS analysis (reference value: 10%); type: functional
IGROV-1 [19] = test: Induction of apoptosis in human IGROV1 cells assessed as healthy cells at 15 uM after 24 hrs by Annexin V/7-AAD staining based flow cytometry (reference value: 86%); type: functional
BXPC-3 [20] = test: Induction of apoptosis in human BxPC3 cells assessed as late apoptotic cells at 0.5 uM after 24 hrs by Annexin V/7-AAD staining based flow cytometry (reference value: 9%); type: functional
U-251 = test: Growth inhibition of human U251 cells after 48 hrs by SRB assay; type: functional; conditions: U-251, 48 h
BXPC-3 [21] = test: Cell cycle arrest in human BxPC3 cells assessed as accumulation at S phase at 5 uM after 24 hrs by propidium iodide staining based flow cytometry (reference value: 33%); type: functional
NCI-H460 = test: Growth inhibition of human NCI-H460 cells after 48 hrs by SRB assay; type: functional; conditions: NCI-H460, 48 h
IGROV-1 [22] = test: Cell cycle arrest in human IGROV1 cells assessed as accumulation at G2 phase at 5 uM after 24 hrs by propidium iodide staining based flow cytometry (reference value: 19%); type: functional
PC-3 [23] = test: Cell cycle arrest in human PC3 cells assessed as accumulation at >G2 phase at 0.5 uM after 24 hrs by propidium iodide staining based flow cytometry (reference value: 6%); type: functional
PC-3 [24] = test: Cell cycle arrest in human PC3 cells assessed as accumulation at >G2 phase at 15 uM after 24 hrs by propidium iodide staining based flow cytometry (reference value: 6%); type: functional
BXPC-3 [25] = test: Induction of apoptosis in human BxPC3 cells assessed as late apoptotic cells at 50 uM after 24 hrs by Annexin V/7-AAD staining based flow cytometry (reference value: 9%); type: functional
BXPC-3 [26] = test: Induction of apoptosis in human BxPC3 cells assessed as late apoptotic cells at 5 uM after 24 hrs by Annexin V/7-AAD staining based flow cytometry (reference value: 9%); type: functional
NCI-H69 = test: Growth inhibition of human NCI-H69 cells after 48 hrs by SRB assay; type: functional; conditions: NCI-H69, 48 h
PC-3 [27] = test: Induction of apoptosis in human PC3 cells assessed as late apoptotic cells at 0.5 uM after 24 hrs by Annexin V/7-AAD staining based flow cytometry (reference value: 2%); type: functional
DU-145 [28] = test: Growth inhibition of human DU145 cells after 48 hrs by SRB assay; type: functional; conditions: DU-145, 48 h
IGROV-1 [29] = test: Induction of apoptosis in human IGROV1 cells assessed as cleaved caspase-3 containing cells at 50 uM after 24 hrs by FACS analysis (reference value: 4%); type: functional
[30] = read-out: LC50 (the source's name)

CN1CCN(c2ccc(C(c3ccccc3)C34CC5CC(CC(C5)C3)C4)cc2)CC1 (centres undefined)
Activity (IGROV-1 [1]): 20%
Activity (PC-3 [2]): 14%
Activity (BXPC-3 [3]): 33%
Activity (DU-145 [4]): Active
GI50 (BXPC-3 [5]): 3.84 µM
LC50 (BXPC-3 [5]): 16.6 µM
TGI (BXPC-3 [5]): 6.96 µM
GI50 (HCT-15): 5.54 µM
LC50 (HCT-15): 100 µM
TGI (HCT-15): 12.8 µM
Activity (PC-3 [6]): 3%
GI50 (DMS-114): 5.43 µM
TGI (DMS-114): 9.17 µM
CC50 (DMS-114; [30]): 100 µM
inhibition in vivo at 45 mg/kg (MIA PaCa-2): 47.5%
Activity (IGROV-1 [7]): 33%
Activity (IGROV-1 [8]): 20%
Activity (BXPC-3 [9]): 12%
Activity (PC-3 [10]): 2%
Activity (IGROV-1 [11]): 3%
Activity (BXPC-3 [12]): 24%
Activity (BXPC-3 [13]): 5%
Activity (PC-3 [14]): 35%
Activity (PC-3 [15]): 7%
Activity (SF-295): Active
Activity (BXPC-3 [16]): 690 mg
Activity (PC-3 [17]): 49%
Activity (BXPC-3 [18]): 5%
Activity (IGROV-1 [19]): 62%
Activity (BXPC-3 [20]): 6%
GI50 (U-251): 4 µM
TGI (U-251): 6.57 µM
CC50 (U-251; [30]): 9.14 µM
Activity (BXPC-3 [21]): 30%
GI50 (NCI-H460): 4.41 µM
LC50 (concentration killing 50% of cells) (NCI-H460): 100 µM
TGI (NCI-H460): 7.66 µM
Activity (IGROV-1 [22]): 19%
Activity (PC-3 [23]): 4%
Activity (PC-3 [24]): 5%
Activity (BXPC-3 [25]): 33%
Activity (BXPC-3 [26]): 17%
GI50 (NCI-H69): 7.09 µM
CC50 (NCI-H69; [30]): 100 µM
Activity (PC-3 [27]): 1%
GI50 (DU-145 [28]): 6.43 µM
TGI (DU-145 [28]): 65.5 µM
CC50 (DU-145 [28]; [30]): 100 µM
Activity (IGROV-1 [29]): 68%
